Laboratory results from PMC5116409 (Nanomedicine : nanotechnology, biology, and medicine, 2016).

Assays:
[1] = molecular target: T1, HIV-1 reverse transcriptase Wild type (Human immunodeficiency virus type 1 group M subtype B, UniProt P03366); experiment: biochemical; details: RNA-dependent DNA polymerization, IC50, Wild type RT; From DMSO stock solution
[2] = molecular target: T2, HIV-1 reverse transcriptase L100I (Human immunodeficiency virus type 1 group M subtype B, UniProt P03366, L699I); experiment: RNA-dependent DNA polymerization by recombinant HIV-1 RT; type: biochemical
[3] = molecular target: T3, HIV-1 reverse transcriptase K103N (Human immunodeficiency virus type 1 group M subtype B, UniProt P03366, K702N); experiment: as above; type: biochemical
[4] = molecular target: T4, HIV-1 reverse transcriptase V106A (Human immunodeficiency virus type 1 group M subtype B, UniProt P03366, V705A); experiment: as above; type: biochemical
[5] = molecular target: T5, HIV-1 reverse transcriptase Y181C (Human immunodeficiency virus type 1 group M subtype B, UniProt P03366, Y780C); experiment: as above; type: biochemical
[6] = molecular target: T6, HIV-1 reverse transcriptase G190A (Human immunodeficiency virus type 1 group M subtype B, UniProt P03366, G789A); experiment: as above; type: biochemical
[7] = molecular target: T7, HIV-1 reverse transcriptase K103N+Y181C (Human immunodeficiency virus type 1 group M subtype B, UniProt P03366, K702N/Y780C); experiment: as above; type: biochemical; details: From DMSO stock solution
[8] = molecular target: T1, HIV-1 reverse transcriptase Wild type; experiment: DNA-dependent DNA polymerization by recombinant HIV-1 RT; type: biochemical; details: From DMSO stock solution
[9] = molecular target: T2, HIV-1 reverse transcriptase L100I; experiment: as above; type: biochemical
[10] = molecular target: T3, HIV-1 reverse transcriptase K103N; experiment: as above; type: biochemical
[11] = molecular target: T4, HIV-1 reverse transcriptase V106A; experiment: as above; type: biochemical
[12] = molecular target: T5, HIV-1 reverse transcriptase Y181C; experiment: as above; type: biochemical
[13] = molecular target: T6, HIV-1 reverse transcriptase G190A; experiment: as above; type: biochemical
[14] = molecular target: T7, HIV-1 reverse transcriptase K103N+Y181C; experiment: as above; type: biochemical; details: From DMSO stock solution
[15] = toxicity to cells, WST-1 test; type: cell-based; details: human

| SMILES | IC50 [1] | IC50 ([2]; Complex with HC-PGC (M5P21OL)) | IC50 ([2]; From DMSO stock solution) | IC50 ([3]; Complex with HC-PGC (M5P21OL)) | IC50 ([3]; From DMSO stock solution) | IC50 [4] | IC50 ([5]; Complex with HC-PGC (M5P21OL)) | IC50 ([5]; From DMSO stock solution) | IC50 [8] | IC50 ([9]; Complex with HC-PGC (M5P21OL)) | IC50 ([9]; From DMSO stock solution) | IC50 ([10]; Complex with HC-PGC (M5P21OL)) | IC50 ([10]; From DMSO stock solution) | IC50 [11] | IC50 ([12]; Complex with HC-PGC (M5P21OL)) | IC50 ([12]; From DMSO stock solution) | IC50 ([13]; Complex with HC-PGC (M5P21OL)) | IC50 ([13]; From DMSO stock solution) | IC50 [14] | CC50 at 4 h [15] | also measured |
| --- | --- | --- | --- | --- | --- | --- | --- | --- | --- | --- | --- | --- | --- | --- | --- | --- | --- | --- | --- | --- | --- |
| Cc1cc(C)cc(C(=O)c2cc(C)ccc2OCCn2ccc(=O)[nH]c2=O)c1 [Z007, 1-(2-(2-(3,5-dimethylbenzoyl)-4-methylphenoxy)ethyl)pyrimidine-2,4(1H,3H)-dione] | 50 ± 20 µM | > 100 µM | 100 ± 30 µM | > 100 µM | > 100 µM | > 100 µM | > 100 µM | > 100 µM | 40 ± 10 µM | > 100 µM | > 100 µM | > 100 µM | > 100 µM | > 100 µM | > 100 µM | > 100 µM | > 100 µM | > 100 µM | > 100 µM | > 50 µM | IC50 ([6]; Complex with HC-PGC (M5P21OL)): > 100 µM; IC50 ([6]; From DMSO stock solution): > 100 µM; IC50 [7]: > 100 µM |
| O=C(c1cc(Cl)cc(Cl)c1)c1cc(Br)ccc1OCCn1ccc(=O)[nH]c1=O [Z011, 1-(2-(4-bromo-2-(3,5-dichlorobenzoyl)phenoxy)ethyl)pyrimidine-2,4(1H,3H)-dione] |  |  |  |  |  |  |  |  | 0.7 ± 0.1 µM | > 100 µM | 1.8 ± 0.6 µM | > 100 µM | 6 ± 1 µM | > 100 µM | 22 ± 5 µM | 1.4 ± 0.5 µM | 2.6 ± 0.7 µM | 1.6 ± 0.3 µM | 10 ± 3 µM | > 50 µM |  |
| Cc1cc(C)cc(C(=O)c2cc(Cl)ccc2OCCn2c3c(c(=O)[nH]c2=O)CCC3)c1 [Z107, 1-(2-(4-chloro-2-(3,5-dimethylbenzoyl)phenoxy)ethyl)-1,5,6,7-tetrahydro-2H-cyclopenta[d]pyrimidine-2,4(3H)-dione] | 3 ± 1 µM | 15 ± 4 µM | 10 ± 3 µM | 100 ± 30 µM | 40 ± 10 µM | > 100 µM | 40 ± 10 µM | 5 ± 2 µM | 0.7 ± 0.2 µM | 1.5 ± 0.2 µM | 3 ± 1 µM | 95 ± 15 µM | 70 ± 2 µM | > 100 µM | 1.9 ± 0.5 µM | 6 ± 2 µM | 0.9 ± 0.3 µM | 45 ± 15 µM | 50 ± 20 µM | > 50 µM | IC50 ([6]; Complex with HC-PGC (M5P21OL)): 70 ± 20 µM; IC50 ([6]; From DMSO stock solution): 35 ± 10 µM; IC50 [7]: 80 ± 30 µM |
